{"source": "patent US5023340A", "about": "“Pyrrolizioines and synthesis thereof” (Monsanto Company, priority 1989, dated 1991)", "key": {"[1]": {"target": "T1, lysosomal α-mannosidase (Homo sapiens, UniProt O00754)", "T1 construct": "from tissue; host or cells: human liver", "T1 sequence (O00754 50-601 limits assumed)": "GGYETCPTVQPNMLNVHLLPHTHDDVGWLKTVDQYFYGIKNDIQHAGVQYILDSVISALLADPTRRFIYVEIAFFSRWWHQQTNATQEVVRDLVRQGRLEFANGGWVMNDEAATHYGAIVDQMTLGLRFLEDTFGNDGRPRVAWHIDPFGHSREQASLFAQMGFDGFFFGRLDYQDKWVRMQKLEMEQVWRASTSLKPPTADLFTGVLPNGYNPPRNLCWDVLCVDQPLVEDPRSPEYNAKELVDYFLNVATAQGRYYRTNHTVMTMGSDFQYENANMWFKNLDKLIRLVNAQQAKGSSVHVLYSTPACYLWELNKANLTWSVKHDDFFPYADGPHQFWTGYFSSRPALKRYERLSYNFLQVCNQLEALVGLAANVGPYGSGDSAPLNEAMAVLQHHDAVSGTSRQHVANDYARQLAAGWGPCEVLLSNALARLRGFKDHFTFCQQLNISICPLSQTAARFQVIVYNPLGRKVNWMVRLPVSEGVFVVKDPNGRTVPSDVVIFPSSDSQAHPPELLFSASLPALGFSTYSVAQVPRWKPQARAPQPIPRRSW", "T1 sequence (O00754 602-882 limits assumed)": "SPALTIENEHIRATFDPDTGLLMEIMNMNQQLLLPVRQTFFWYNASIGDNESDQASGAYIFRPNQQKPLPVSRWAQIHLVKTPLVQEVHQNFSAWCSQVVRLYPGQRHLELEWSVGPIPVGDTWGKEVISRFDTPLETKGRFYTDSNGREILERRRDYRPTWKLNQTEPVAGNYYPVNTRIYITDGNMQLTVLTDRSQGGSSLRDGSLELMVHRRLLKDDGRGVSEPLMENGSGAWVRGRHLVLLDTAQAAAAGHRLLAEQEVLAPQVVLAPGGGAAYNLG", "T1 sequence (O00754 883-1011 limits assumed)": "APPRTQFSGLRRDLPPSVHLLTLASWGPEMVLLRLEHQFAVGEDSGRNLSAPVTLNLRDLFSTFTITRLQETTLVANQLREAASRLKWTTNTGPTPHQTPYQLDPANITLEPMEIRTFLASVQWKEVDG", "experiment": "inhibition of human liver glycosidases: lysosomal α-mannosidase", "type": "biochemical", "from_the_text": "(§1) The effects of the ring contracted swainsonines (3) and (4) on the inhibition of 14 human liver glycosidases was studied by the assay methods described in Palamarczyk et al., Arch. Biochem. Biophys. 243, 35 (1985); Daniel et al., Glycoconjugate J. 6, 229 (1989) and Cenci di Bello et al., Biochem. J. 259, 855 (1989). […] Chem. Commun."}, "[2]": {"tested_on": "lysosomal α-mannosidase", "conditions": "literature; cited from earlier work"}, "[3]": {"tested_on": "processing forms of α-mannosidase", "conditions": "literature; cited from earlier work"}, "[4]": {"tested_on": "Golgi II processing mannosidase", "experiment": "inhibition of human liver glycosidases: Golgi II mannosidase", "type": "biochemical", "conditions": "compared with swainsonine", "from_the_text": "as §1"}, "[5]": {"tested_on": "neutral processing mannosidase", "experiment": "inhibition of human liver glycosidases: neutral processing mannosidase", "type": "biochemical", "conditions": "compared with swainsonine", "from_the_text": "as §1"}, "[6]": {"tested_on": "β-galactosidase", "experiment": "inhibition of human liver glycosidases: β-galactosidase", "type": "biochemical", "conditions": "1 mM", "from_the_text": "as §1"}, "[7]": {"tested_on": "broad specificity β-galactosidase/β-glucosidase", "experiment": "inhibition of human liver glycosidases: broad specificity β-galactosidase/β-glucosidase", "type": "biochemical", "from_the_text": "as §1"}, "[8]": {"tested_on": "α-fucosidase", "experiment": "inhibition of human liver glycosidases: α-fucosidase", "type": "biochemical", "conditions": "1 mM", "from_the_text": "as §1"}, "[9]": {"target": "T2, Jack bean α-mannosidase (Canavalia ensiformis, UniProt C0HJB3)", "T2 sequence (C0HJB3 1-981)": "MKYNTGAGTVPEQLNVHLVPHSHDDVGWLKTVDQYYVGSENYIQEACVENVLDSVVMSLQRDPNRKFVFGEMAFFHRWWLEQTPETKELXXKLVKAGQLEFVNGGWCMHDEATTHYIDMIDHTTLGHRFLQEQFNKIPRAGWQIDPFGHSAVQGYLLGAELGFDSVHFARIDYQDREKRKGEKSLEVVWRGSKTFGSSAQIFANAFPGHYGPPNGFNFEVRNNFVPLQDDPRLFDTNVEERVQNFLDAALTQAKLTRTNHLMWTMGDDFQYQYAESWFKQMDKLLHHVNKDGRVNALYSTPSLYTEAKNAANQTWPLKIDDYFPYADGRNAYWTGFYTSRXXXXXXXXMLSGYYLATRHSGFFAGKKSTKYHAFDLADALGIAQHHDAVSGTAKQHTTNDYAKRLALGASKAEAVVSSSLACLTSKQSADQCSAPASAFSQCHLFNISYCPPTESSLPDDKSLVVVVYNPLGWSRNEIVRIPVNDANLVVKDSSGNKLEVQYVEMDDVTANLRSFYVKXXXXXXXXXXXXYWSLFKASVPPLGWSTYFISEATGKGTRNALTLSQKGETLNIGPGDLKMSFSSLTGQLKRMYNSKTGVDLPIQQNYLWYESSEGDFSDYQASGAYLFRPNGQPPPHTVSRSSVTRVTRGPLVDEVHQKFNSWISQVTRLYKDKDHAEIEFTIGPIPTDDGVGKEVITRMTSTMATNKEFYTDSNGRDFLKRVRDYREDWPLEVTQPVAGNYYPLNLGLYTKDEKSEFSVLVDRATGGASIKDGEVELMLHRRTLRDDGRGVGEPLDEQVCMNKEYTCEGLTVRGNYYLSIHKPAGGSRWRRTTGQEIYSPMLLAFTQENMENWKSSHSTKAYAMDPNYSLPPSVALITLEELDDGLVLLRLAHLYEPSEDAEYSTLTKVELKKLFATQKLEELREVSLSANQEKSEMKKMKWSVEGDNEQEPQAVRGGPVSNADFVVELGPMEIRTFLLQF", "experiment": "inhibition of Jack bean α-mannosidase", "type": "biochemical"}, "[10]": {"tested_on": "snail β-mannosidase", "experiment": "inhibition of snail β-mannosidase", "type": "biochemical"}, "[11]": {"tested_on": "yeast α-glucosidase", "experiment": "inhibition of yeast α-glucosidase", "type": "biochemical"}, "[12]": {"tested_on": "almond β-glucosidase", "experiment": "inhibition of almond β-glucosidase", "type": "biochemical"}, "[13]": {"tested_on": "Aspergillus niger α-galactosidase", "experiment": "inhibition of Aspergillus niger α-galactosidase", "type": "biochemical"}, "[14]": {"target": "green coffee bean α-galactosidase (Coffea arabica, UniProt Q42656)", "sequence (Q42656 16-378)": "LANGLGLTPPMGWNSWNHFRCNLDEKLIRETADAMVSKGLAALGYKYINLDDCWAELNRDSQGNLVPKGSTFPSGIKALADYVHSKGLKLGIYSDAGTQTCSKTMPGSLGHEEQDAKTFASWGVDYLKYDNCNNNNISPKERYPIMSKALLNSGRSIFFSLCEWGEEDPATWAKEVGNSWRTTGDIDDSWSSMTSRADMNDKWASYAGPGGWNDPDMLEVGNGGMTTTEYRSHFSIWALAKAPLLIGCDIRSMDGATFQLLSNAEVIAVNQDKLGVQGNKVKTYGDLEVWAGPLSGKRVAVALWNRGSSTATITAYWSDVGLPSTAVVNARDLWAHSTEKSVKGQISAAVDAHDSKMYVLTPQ", "experiment": "inhibition of green coffee bean α-galactosidase", "type": "biochemical"}, "[15]": {"tested_on": "bovine β-galactosidase", "experiment": "inhibition of bovine β-galactosidase", "type": "biochemical"}, "[16]": {"tested_on": "bovine kidney α-fucosidase", "experiment": "inhibition of bovine kidney α-fucosidase", "type": "biochemical"}, "[17]": {"tested_on": "bovine β-hexosaminidase", "experiment": "inhibition of bovine β-hexosaminidase", "type": "biochemical"}, "[18]": {"tested_on": "glycosidases", "experiment": "inhibition of glycosidases (general statement)", "type": "biochemical", "conditions": "compared with swainsonine"}, "[19]": {"tested_on": "human liver α-mannosidases", "experiment": "inhibition of human liver α-mannosidases", "type": "biochemical", "from_the_text": "as §1"}, "[20]": {"tested_on": "amyloglucosidase", "conditions": "literature (Nash et al.); cited from earlier work"}}}
{"smiles": "O[C@H]1[C@H]2[C@H](O)CCCN2C[C@H]1O", "note": "[Compound 1, (1S,2R,8R,8aR)-1,2,8-Trihydroxyindolizidine]", "values": [{"measurement": "Ki", "setting": "[1]; lysosomal α-mannosidase, comparator", "value": 70, "unit": "nM"}, {"measurement": "inhibition of lysosomal α-mannosidase", "setting": "[2]", "value": "potent and specific inhibitor"}, {"measurement": "inhibition of some of the processing forms of α-mannosidase", "setting": "[3]", "value": "potent and specific inhibitor"}]}
{"smiles": "O[C@H]1[C@H]2[C@H](O)CCN2C[C@H]1O", "note": "[Compound 3, (1S,2R,7R,7aR)-1,2,7-Trihydroxypyrrolizidine]", "values": [{"measurement": "IC50", "setting": "[1]; human liver lysosomal α-mannosidase, read-out: I50", "value": 1.5, "unit": "mM"}, {"measurement": "inhibition of Golgi II processing mannosidase", "setting": "[4]", "value": "less effective"}, {"measurement": "inhibition of neutral processing mannosidase", "setting": "[5]", "value": "less effective"}, {"measurement": "inhibition of β-galactosidase", "setting": "[6]", "value": 69, "unit": "%"}, {"measurement": "inhibition of broad specificity β-galactosidase/β-glucosidase", "setting": "[7]; 1 mM", "value": 25, "unit": "%"}, {"measurement": "inhibition of α-fucosidase", "setting": "[8]", "value": 33, "unit": "%"}, {"measurement": "Ki", "setting": "[9]", "value": 1.7, "unit": "mM"}, {"measurement": "inhibition of snail β-mannosidase", "setting": "[10]", "value": "no significant inhibition"}, {"measurement": "inhibition of yeast α-glucosidase", "setting": "[11]", "value": "no significant inhibition"}, {"measurement": "inhibition of almond β-glucosidase", "setting": "[12]", "value": "no significant inhibition"}, {"measurement": "inhibition of Aspergillus niger α-galactosidase", "setting": "[13]", "value": "no significant inhibition"}, {"measurement": "inhibition of green coffee bean α-galactosidase", "setting": "[14]", "value": "no significant inhibition"}, {"measurement": "inhibition of bovine β-galactosidase", "setting": "[15]", "value": "no significant inhibition"}, {"measurement": "inhibition of bovine kidney α-fucosidase", "setting": "[16]", "value": "no significant inhibition"}, {"measurement": "inhibition of bovine β-hexosaminidase", "setting": "[17]", "value": "no significant inhibition"}, {"measurement": "glycosidase inhibitory activity", "setting": "[18]", "value": "weaker such activity than swainsonine"}]}
{"smiles": "O[C@H]1[C@H]2[C@@H](O)CCN2C[C@H]1O", "note": "[Compound 4, (1S,2R,7S,7aR)-1,2,7-Trihydroxypyrrolizidine]", "values": [{"measurement": "inhibition of broad specificity β-galactosidase/β-glucosidase", "setting": "[7]; concentration not given", "value": 40, "unit": "%"}, {"measurement": "inhibition of human liver α-mannosidases", "setting": "[19]", "value": "does not inhibit"}, {"measurement": "glycosidase inhibitory activity", "setting": "[18]", "value": "weaker such activity than swainsonine"}]}
{"smiles": "OC[C@@H]1[C@@H](O)[C@@H](O)[C@H]2[C@@H](O)CCN21", "note": "[Compound 5, 1,7a-diepialexine]", "values": [{"measurement": "amyloglucosidase inhibition", "setting": "[20]", "value": "powerful amyloglucosidase inhibitor"}]}
